Experiments:
[1] = system: patients with indolent forms of mastocytosis with handicap; assay: Example 1 phase 2a study, safety assessment
[2] = system: Ba/F3 cells expressing human or mouse wild-type c-Kit; details: stem cell factor-induced proliferation and c-Kit tyrosine phosphorylation; cited from earlier work
[3] = system: patients with indolent mastocytosis with handicap bearing the D816V c-Kit mutation; assay: Example 2 phase 2a study, safety; type: in vivo, human
[4] = system: patients with smoldering systemic, indolent systemic or cutaneous mastocytosis with handicap; assay: phase 3 study AB06006, masitinib versus placebo; type: in vivo, human
Source text: The trial lasted 24 weeks with possible extension. In accordance with protocol amendment version 7.0 (v7), the study population was amended to a more restricted subpopulation of mastocytosis. […] The trial lasted 24 weeks with possible extension. […] To be noted, for the purpose of efficacy analysis a patient was classified as severe if they suffered from at least one of the main handicaps constituting the primary endpoint: […] The criterion of “at least two of the following handicaps” including handicaps on stools and micturition, was relaxed to “at least one of the main handicaps” (i.e. pruritus, flushes, depression and fatigue). […] At each patient evaluation between weeks 8 and 24, each of the above four severe symptoms was evaluated. […] In this case, missing data was imputed as failure (missing=failure as primary analysis). • Case 2: discontinuation for a documented reason excluding toxicity or lack of efficacy. In this case, non-observed values can be considered as Missing At Random (MAR), and no imputation will be done (Observed Cases). • Replacement of missing value for patients present at the visit: If data was missing despite the patient being present at the visit, said missing data was not replaced. Secondary Analysis: […] (asthenia). • A second group comprised patients diagnosed as having severe indolent systemic mastocytosis, severe smoldering systemic mastocytosis, or severe cutaneous mastocytosis. […] This group provides comparative analysis for patient selection according to variant of mastocytosis (i.e. systemic versus cutaneous). • A third group comprised all randomized patients to study AB06006, corresponding therefore to the least restricted population, comprising patients with severe/non severe indolent and smoldering systemic mastocytosis, and severe/non severe cutaneous mastocytosis. This group provides comparative analysis based on patient selection according to severity of mast cell mediator release symptoms. […] ≥40. Diff=absolute difference in response rates between treatment-arms of a given population (masitinib arm minus placebo arm). Factor Diff=ratio of 'Diff' between compared populations showing relative superiority of response rate for severe systemic population over the comparator population. […] ****PF=patients with both pruritus and flushes handicap at baseline.

[5] = moderate baseline handicap, all patients
[6] = moderate baseline handicap, all patients (n = 110)
[7] = moderate baseline handicap, severe indolent/smoldering systemic
[8] = moderate baseline handicap, severe indolent/smoldering systemic (n = 67)
[9] = moderate baseline handicap, severe systemic vs all patients
[10] = severe baseline handicap, severe cutaneous/indolent/smoldering
[11] = severe baseline handicap, severe cutaneous/indolent/smoldering (n = 110)
[12] = severe baseline handicap, severe indolent/smoldering systemic
[13] = severe baseline handicap, severe indolent/smoldering systemic (n = 67)
[14] = severe baseline handicap, severe systemic vs severe cutaneous/indolent/smoldering

## Cc1ccc(NC(=O)c2ccc(CN3CCN(C)CC3)cc2)cc1Nc1nc(-c2cccnc2)cs1 [masitinib, 4-(4-methylpiperazin-1-ylmethyl)-N-[4-methyl-3-(4-pyridin-3ylthiazol-2-ylamino)phenyl]benzamide]
[1]; All (N = 25)
  Early study discontinuation: Adverse event: 12 N, %
[1]; after W12
  incidence of skin rash: no incidence
[1]; extension phase, All (N = 17)
  At least one suspected AE: 10 (58.8%) subjects (%)
  suspected AE: Abdominal pain: 1 (5.9%) subjects (%)
  suspected AE: Aphthous stomatitis: 1 (5.9%) subjects (%)
  suspected AE: Arthralgia: 1 (5.9%) subjects (%)
  suspected AE: Blepharitis: 1 (5.9%) subjects (%)
  suspected AE: Cytolytic hepatitis: 1 (5.9%) subjects (%)
  suspected AE: Dermatitis psoriasiform: 1 (5.9%) subjects (%)
  suspected AE: Eczema: 1 (5.9%) subjects (%)
  suspected AE: Gamma-glutamyltransferase increased: 1 (5.9%) subjects (%)
  suspected AE: Gingivitis: 1 (5.9%) subjects (%)
  suspected AE: Muscle spasms: 1 (5.9%) subjects (%)
  suspected AE: Vomiting: 1 (5.9%) subjects (%)
[1]; extension phase, Mild
  At least one suspected AE: 6 (35.3%) subjects (%)
  suspected AE: Arthralgia: 1 (5.9%) subjects (%)
  suspected AE: Blepharitis: 1 (5.9%) subjects (%)
  suspected AE: Dermatitis psoriasiform: 1 (5.9%) subjects (%)
  suspected AE: Edema—all categories: 1 (5.9%) subjects (%)
  suspected AE: Gamma-glutamyltransferase increased: 1 (5.9%) subjects (%)
  suspected AE: Gingivitis: 1 (5.9%) subjects (%)
  suspected AE: Nausea: 2 (11.8%) subjects (%)
  suspected AE: Nausea/Vomiting: 2 (11.8%) subjects (%)
[1]; extension phase, Moderate
  At least one suspected AE: 5 (29.4%) subjects (%)
  suspected AE: Abdominal pain: 1 (5.9%) subjects (%)
  suspected AE: Cytolytic hepatitis: 1 (5.9%) subjects (%)
  suspected AE: Eczema: 1 (5.9%) subjects (%)
  suspected AE: Muscle spasms: 1 (5.9%) subjects (%)
  suspected AE: Nausea/Vomiting: 1 (5.9%) subjects (%)
  suspected AE: Vomiting: 1 (5.9%) subjects (%)
[1]; extension phase, Severe
  At least one suspected AE: 1 (5.9%) subjects (%)
  suspected AE: Aphthous stomatitis: 1 (5.9%) subjects (%)
[1]; initial phase, Mild
  At least one suspected AE: 11 (44.0%) subjects (%)
  suspected AE: Abdominal pain: 2 (8.0%) subjects (%)
  suspected AE: Diarrhea: 1 (4.0%) subjects (%)
  suspected AE: Edema - all categories: 3 (12.0%) subjects (%)
  suspected AE: Muscle spasms: 1 (4.0%) subjects (%)
  suspected AE: Nausea: 5 (20.0%) subjects (%)
  suspected AE: Nausea/Vomiting: 6 (24.0%) subjects (%)
  suspected AE: Vomiting: 1 (4.0%) subjects (%)
[1]; initial phase, Moderate
  At least one suspected AE: 19 (76.0%) subjects (%)
  suspected AE: Abdominal pain: 3 (12.0%) subjects (%)
  suspected AE: Asthaenia: 4 (16.0%) subjects (%)
  suspected AE: Diarrhea: 2 (8.0%) subjects (%)
  suspected AE: Dyspnoea: 3 (12.0%) subjects (%)
  suspected AE: Edema - all categories: 8 (32.0%) subjects (%)
  suspected AE: Eructation: 2 (8.0%) subjects (%)
  suspected AE: Headache: 5 (20.0%) subjects (%)
  suspected AE: Muscle spasms: 7 (28.0%) subjects (%)
  suspected AE: Nausea: 7 (28.0%) subjects (%)
  suspected AE: Nausea/Vomiting: 8 (32.0%) subjects (%)
  suspected AE: Rash - all categories: 6 (24.0%) subjects (%)
  suspected AE: Vomiting: 4 (16.0%) subjects (%)
[1]; initial phase, Severe
  At least one suspected AE: 9 (36.0%) subjects (%)
  suspected AE: Asthaenia: 3 (12.0%) subjects (%)
  suspected AE: Diarrhea: 1 (4.0%) subjects (%)
  suspected AE: Edema - all categories: 2 (8.0%) subjects (%)
  suspected AE: Eructation: 1 (4.0%) subjects (%)
  suspected AE: Muscle spasms: 1 (4.0%) subjects (%)
  suspected AE: Nausea: 1 (4.0%) subjects (%)
  suspected AE: Nausea/Vomiting: 1 (4.0%) subjects (%)
  suspected AE: Rash - all categories: 2 (8.0%) subjects (%)
[1]; one patient, two episodes of agranulocytosis at 3 mg/kg/day
  treatment-related SAEs: Two
[1]; prior to W12, 2/25 patients
  patients who withdrew due to occurrence of AEs: 8%
[2]
  IC50: 150 ± 80 nM
[3]; 20 patients
  patients with at least one adverse event suspected to be related to masitinib: 95%
[3]; five patients
  patients who discontinued treatment because of a suspected adverse event: 24%
[3]; in vivo
  patients with suspected adverse event that led to dose reduction: Two
[3]; two patients
  patients with at least one serious adverse event suspected to be related to masitinib: 9%
[4]; [5]
  2H[75%] Diff (masitinib arm minus placebo arm): 2.9%
  3H[75%] Diff (masitinib arm minus placebo arm): 2.3%
  4H[75%] Diff (masitinib arm minus placebo arm): 0.4%
  PF Diff (masitinib arm minus placebo arm): 0.2%
[4]; [6]
  2H[75%] cumulative response: 23.3%
  3H[75%] cumulative response: 20.3%
  4H[75%] cumulative response: 16.3%
  PF cumulative response: 26.9%
[4]; [7]
  2H[75%] Diff (masitinib arm minus placebo arm): 12.2%
  3H[75%] Diff (masitinib arm minus placebo arm): 12.8%
  4H[75%] Diff (masitinib arm minus placebo arm): 10.1%
  PF Diff (masitinib arm minus placebo arm): 10.7%
[4]; [8]
  2H[75%] cumulative response: 28.2%
  3H[75%] cumulative response: 24.8%
  4H[75%] cumulative response: 19.6%
  PF cumulative response: 28.7%
[4]; [9]
  2H[75%] Factor Diff: 4.2
  3H[75%] Factor Diff: 5.6
  4H[75%] Factor Diff: 25.3
  PF Factor Diff: 53.5
[4]; [10]
  2H[75%] Diff (masitinib arm minus placebo arm): 7.4%
  3H[75%] Diff (masitinib arm minus placebo arm): 6.3%
  4H[75%] Diff (masitinib arm minus placebo arm): 3.3%
  PF Diff (masitinib arm minus placebo arm): 6.9%
[4]; [11]
  2H[75%] cumulative response: 22.0%
  3H[75%] cumulative response: 20.0%
  4H[75%] cumulative response: 15.4%
  PF cumulative response: 30.6%
[4]; [12]
  2H[75%] Diff (masitinib arm minus placebo arm): 16.5%
  3H[75%] Diff (masitinib arm minus placebo arm): 15.2%
  4H[75%] Diff (masitinib arm minus placebo arm): 11.1%
  PF Diff (masitinib arm minus placebo arm): 17.8%
[4]; [13]
  2H[75%] cumulative response: 27.2%
  3H[75%] cumulative response: 24.9%
  4H[75%] cumulative response: 18.6%
  PF cumulative response: 35.4%
[4]; [14]
  2H[75%] Factor Diff: 2.2
  3H[75%] Factor Diff: 2.4
  4H[75%] Factor Diff: 3.4
  PF Factor Diff: 2.6

Reference: patent US10045978B2 (AB SCIENCE, priority 2010, dated 2018)
